Source: ChEMBL document CHEMBL5726023, “Fused azaheterocyclic compounds and their use as AMPA receptor modulators” (2018)
pIC50: −log10 of the molar value.

Test: Calcium Flux Assay: An in vitro assay was used to determine the potency of test compounds as inhibitors of the glutamate response of the channel formed by GluA1o-γ8. To ensure a 1:1 stoichiometry of GluA1o and γ8 subunits in the expressed channel, a fusion of the cDNAs for GRIA1o and CACNG8 was used. Following Shi et al (2009) The stoichiometry of AMPA receptors and TARPs varies by neuronal cell type. Neuron 62(5): 633-640), the C-terminus of the cDNA for GRIA1o was fused to the N-terminus of the cDNA for γ8. The linker sequence was QQQQQQQQQQEFAT. Channels expressed with this construct appear to have similar properties to channels formed by co-expression of GRIA1o with an excess of CACNG8 (Shi et al. 2009). A clonal cell line in HEK293 cells stably expressing this construct, with a geneticin selection marker, was generated for use in this assay.Cell expressing the GRIA1o-CACNG8 fusion construct were grown in a monolayer in 96- or 384-well microtiter plates. They were washed with assay buffer (135 mM NaCl, 4 mM KCl, 3 mM CaCl2, 1 mM MgCl2, 5 mM glucose, 10 mM HEPES, pH 7.4, 300 mOs) using a Biotek EL405 plate washer. The cells were then loaded with a calcium-sensitive dye (Calcium-5 or Calcium-6, Molecular Devices) and the test compounds at a range of concentrations. […]
Format: cell-based

Cc1cc(-c2c(C(F)(F)F)ccn3cc(C(C)C)nc23)cc2cn[nH]c12
pIC50: 10.00
